Results on 18 compounds are retold here after ChEMBL document CHEMBL5233251, “Epoxide containing molecules: A good or a bad drug design approach” (Eur J Med Chem, 2020).

Experiment [1] is described as follows: Cytotoxicity against human RPMI-8226/Dox40 cells assessed as inhibition of cell growth incubated for 3 days. It counts as functional, cell-based. Conditions: RPMI-8226, 72 h.
A further experiment relates to NCI-H522. Briefly: Cytotoxicity against human NCI-H522 cells assessed as inhibition of cell growth incubated for 3 days. The experiment is classed as functional, cell-based. Conditions: NCI-H522, 72 h.
The subject of the next experiment is Hyalomma lusitanicum. Briefly: Anti-insecticidal activity against Hyalomma lusitanicum Koch larvae assessed as inhibition of larval growth. The experiment is classed as functional. The conditions noted are these: for LC50: Hyalomma lusitanicum, read-out: LD50 (the source's name).
The next experiment relates to HEp-2. Briefly: Cytotoxicity against human HEp-2 cells assessed as inhibition of cell growth. Conditions: read-out: ED50 (the source's name). It counts as functional.
The test system of experiment [2] is A2780. Briefly: Cytotoxicity against human A2780 cells assessed as inhibition of cell growth incubated for 96 hrs by SRB assay. The experiment is classed as toxicity, cell-based. The conditions noted are these: A2780, 96 h. (In general: In SRB staining, fixed cells bind dye roughly in proportion to their protein.)
The subject of experiment [3] is MG-63. Briefly: Antiproliferative activity against human MG-63 cells assessed as inhibition of cell growth by MTT assay. The experiment is classed as functional, cell-based.
In experiment [4] the test system is MG-63. Briefly: Antiproliferative activity against human MG-63 cells assessed as reduction in cell viability by SRB assay. The experiment is classed as functional, cell-based.
The next experiment relates to HL-60. Description: Antiproliferative activity against human HL-60 cells assessed as inhibition of cell growth incubated for 72 hrs by MTT assay. The experiment is classed as functional, cell-based. The conditions noted are these: HL-60, 72 h. Background: Tetrazolium dyes change colour on reduction, which living cells bring about.
Another experiment concerns Leishmania donovani. Briefly: Antileishmanial activity against Leishmania donovani promastigotes. It counts as functional, organism-based.
A further experiment concerns HCT-116. Briefly: Antiproliferative activity against human HCT-116 cells assessed as inhibition of cell growth incubated for 72 hrs by MTT assay. It counts as functional, cell-based. Conditions: HCT-116, 72 h.
The test system of another experiment is OVCAR-8. Description: Antiproliferative activity against human OVCAR-8 cells assessed as inhibition of cell growth incubated for 72 hrs by MTT assay. The experiment is classed as functional, cell-based. The conditions noted are these: OVCAR-8, 72 h.
The next experiment relates to SF-295. Description: Antiproliferative activity against human SF-295 cells assessed as inhibition of cell growth incubated for 72 hrs by MTT assay. It counts as functional, cell-based. Conditions: SF-295, 72 h.
Another experiment has as its system HCT-15. Description: Antiproliferative activity against human HCT-15 cells assessed as reduction in cell viability incubated for 48 hrs by CytoX cell viability assay. The experiment is classed as functional, cell-based. Conditions: HCT-15, 48 h.
In another experiment the test system is DU-145. Briefly: Antiproliferative activity against human DU-145 cells assessed as reduction in cell viability incubated for 48 hrs by CytoX cell viability assay. It counts as functional, cell-based. Conditions: DU-145, 48 h.
Experiment [5] has as its system K562. Description: Antiproliferative activity against human K562 cells assessed as reduction in cell viability incubated for 48 hrs by CytoX cell viability assay. The conditions noted are these: K562, 48 h. The experiment is classed as functional, cell-based.
Experiment [6] relates to MCF7. Description: Antiproliferative activity against human MCF7 cells assessed as reduction in cell viability incubated for 48 hrs by CytoX cell viability assay. It counts as functional, cell-based. Conditions: MCF7, 48 h.
Experiment [7] deals with HeLa. Briefly: Antiproliferative activity against human HeLa cells assessed as reduction in cell viability incubated for 48 hrs by CytoX cell viability assay. It counts as functional, cell-based.
A further experiment has as its system MDA-MB-231. Description: Cytotoxicity against human MDA-MB-231 cells assessed as inhibition of cell growth incubated for 48 hrs by SRB assay. It counts as functional, cell-based. The conditions noted are these: MDA-MB-231, 48 h.
Experiment [8] has as its system A2780. Briefly: Antiproliferative activity against human A2780 cells assessed as inhibition of cell proliferation incubated for 4 days by MTT assay. It counts as functional, cell-based. The conditions noted are these: A2780, 96 h.
The test system of the next experiment is HT-29. Description: Antiproliferative activity against human HT-29 cells assessed as inhibition of cell proliferation incubated for 4 days by MTT assay. The experiment is classed as functional, cell-based. Conditions: HT-29, 96 h.
The next experiment has as its system NCI-H1299. Briefly: Antiproliferative activity against human NCI-H1299 cells assessed as inhibition of cell proliferation incubated for 4 days by MTT assay. It counts as functional, cell-based. Conditions: NCI-H1299, 96 h.
Experiment [9] concerns MCF7. Briefly: Antiproliferative activity against human MCF7 cells assessed as inhibition of cell proliferation incubated for 4 days by MTT assay. It counts as functional, cell-based. The conditions noted are these: MCF7, 96 h.
Another experiment deals with Malme-3M. Description: Antiproliferative activity against human Malme-3M cells assessed as inhibition of cell proliferation incubated for 4 days by MTT assay. The experiment is classed as functional, cell-based. Conditions: 96 h.
Experiment [10] has as its system K562. Briefly: Antiproliferative activity against human K562/C1000 cells assessed as inhibition of cell proliferation incubated for 4 days by MTT assay. It counts as functional, cell-based. The conditions noted are these: K562, 96 h.
For experiment [11], the system named is HeLa. Briefly: Antiproliferative activity against human HeLa cells assessed as inhibition of cell proliferation incubated for 4 days by MTT assay. It counts as functional, cell-based. Conditions: 96 h.
The test system of a further experiment is PC-3. Briefly: Cytotoxicity against human PC-3 cells assessed as inhibition of cell growth incubated for 48 hrs by SRB assay. The experiment is classed as functional, cell-based. Conditions: PC-3, 48 h.
Experiment [12] deals with MCF7. Briefly: Cytotoxicity against human MCF7 cells assessed as inhibition of cell growth incubated for 48 hrs by SRB assay. It counts as functional, cell-based. Conditions: MCF7, 48 h.
The subject of experiment [13] is Plasmodium falciparum. Description: Antimalarial activity against Sulfadoxine-resistant Plasmodium falciparum 3D7. It counts as functional, organism-based.
Experiment [14] concerns Plasmodium falciparum. Briefly: Antimalarial activity against Sulfadoxine-sensitive Plasmodium falciparum FCR3. It counts as functional, organism-based.
Experiment [15] has as its system Plasmodium falciparum. Description: Antimalarial activity against Sulfadoxine-resistant Plasmodium falciparum W2. It counts as functional, organism-based.
The test system of experiment [16] is Plasmodium falciparum. Description: Antimalarial activity against chloroquine-sensitive Plasmodium falciparum D10 incubated for 48 hrs. It counts as functional, organism-based. The conditions noted are these: D10, 48 h.
Experiment [17] concerns Plasmodium falciparum. Briefly: Antimalarial activity against Sulfadoxine-sensitive Plasmodium falciparum D6. It counts as functional, organism-based.
In experiment [18] the test system is Plasmodium falciparum. Briefly: Antimalarial activity against Sulfadoxine-sensitive Plasmodium falciparum HB3. The experiment is classed as functional, organism-based.
Experiment [19] concerns Plasmodium falciparum. Briefly: Antimalarial activity against […] incubated for 48 hrs. The experiment is classed as functional, organism-based. Conditions: K1, 48 h.

Values after ≈ are worked out from the molar mass of the structure shown. Bounds are passed on as bounds.

One may read the IC50 as the concentration at which inhibition is half-maximal. Regarding `C[C@]1([C@H]2Cc3ccc4c(c3O2)-n2cc(C(=O)O)c(=O)c3cc(F)c(N5CC[C@H](N)C5)c(c32)O4)CO1`, the IC50 was determined as 0.05 µM in experiment [1] and 0.07 µM in the experiment on NCI-H522.
`CC(C)=C1C/C=C(\C)CC/C=C(\C)CC1=O`: in the experiment with Hyalomma lusitanicum, the LD90 was determined as 3.13 mg/mL and the LC50 stood at 1080 µg/mL (≈ 4950 µM).
As for `C=C1C(=O)O[C@@H]2C[C@@H](C)[C@@H]3C4OC4C(=O)[C@@]3(C)[C@@H](O)[C@H]12` (some centres undefined), the EC50 in the experiment on HEp-2 was 0.11 µg/mL (≈ 0.395 µM).
In the case of `CC1=CC[C@]23O[C@@]2(C)CC[C@@H]2[C@H](OC(=O)[C@H]2CN2CCNCC2)[C@@H]13`, the IC50 with A2780 [2] was determined as 3.75 µM.
As to `C[C@@H]1CC[C@@H]([C@]2(C)CO2)[C@H](OCc2ccccc2)C1`, the IC50 in the experiment on MG-63 [3] and in the experiment on MG-63 [4] was 100 µM in each case.
Regarding `C=C(C)[C@H]1CCC2(C=O)OC2C1` (some centres undefined), the IC50 in the experiment with HL-60 was determined as 9.7 µM; with Leishmania donovani, 64.6 µg/mL (≈ 389 µM); with HCT-116, 16.1 µM; in the experiment with OVCAR-8, 23.6 µM; with SF-295 it was 22 µM.
With `CC(C)=C1C/C=C(\C)CC[C@H]2O[C@@]2(C)CC1=O`, in the experiment on Hyalomma lusitanicum, the LD90 was 4.1 mg/mL and the LC50 turned out to be 2700 µg/mL (≈ 11500 µM).
Turning to `CC1C(=O)O[C@@H]2C[C@@H](C)[C@]34O[C@H]3CC(=O)[C@@]4(C)[C@@H](O)[C@H]12` (some centres undefined), the EC50 in the experiment on HEp-2 turned out to be 0.11 µg/mL (≈ 0.392 µM).
`Cc1cc(=O)c2c(OC[C@@H]3CO3)cc(OC[C@H]3CO3)cc2o1`: the IC50 was 12.1 µM in the experiment on HCT-15; 20.4 µM in the experiment with DU-145; 1.49 µM in the experiment on K562 [5]; 13.9 µM with MCF7 [6]; 11 µM with HeLa [7].
Taken in the same sequence, the figures for `Cc1cc(=O)c2c(OC[C@@H]3CO3)cc(OC[C@@H]3CO3)cc2o1` were 39.5 µM, 24.5 µM, 19.5 µM, 46.1 µM and 21.7 µM.
On to `C=C1C(=O)O[C@@H]2C[C@@H](C)[C@]34O[C@H]3CC(=O)[C@@]4(C)[C@@H](O)[C@H]12`, for which, in the experiment on HEp-2, the EC50 was found to be 0.11 µg/mL (≈ 0.395 µM).
Take `C[C@@H]1OC(=O)C[C@H]2[C@@H]3CC[C@]45O[C@H]4C(=O)CC[C@]5(C)[C@H]3CC[C@]12C`: the IC50 in the experiment with MDA-MB-231 turned out to be 3.6 µM.
For `CC1=C2CC3(OC3(C)C)C(=O)C[C@@]2(C)CCC1` (some centres undefined), in the experiment with Hyalomma lusitanicum, the LD90 was 6.33 mg/mL and the LC50 was 4140 µg/mL (≈ 17700 µM).
For `Cc1cc(=O)c2c(O)cc(OC[C@H]3CO3)cc2o1`, the IC50 in the experiment with HCT-15 was 27.2 µM; in the experiment on DU-145 it was 15.2 µM; in the experiment on K562 [5], 9.74 µM; with MCF7 [6], 22.9 µM; in the experiment on HeLa [7], 16.7 µM.
Turning to `CC1(C)NC(=O)[C@@H](CCCCCC(=O)[C@@H]2CO2)NC(=O)CC2CCCN2C(=O)[C@@H](Cc2ccccc2)NC1=O` (some centres undefined), the IC50 amounted to 0.00036 µM with A2780 [8]; 0.0043 µM with HT-29; 0.004 µM in the experiment with NCI-H1299; 0.0053 µM with MCF7 [9]; 0.045 µM in the experiment on Malme-3M; 0.00076 µM in the experiment with K562 [10]. The IC50 in the experiment on HeLa [11] was found to be 0.014 µM.
With `CC(C)=C1C[C@H]2O[C@@]2(C)CC/C=C(\C)CC1=O`, in the experiment with Hyalomma lusitanicum, the LD90 stood at 3.45 mg/mL and the LC50 is 1470 µg/mL (≈ 6270 µM).
Regarding `C[C@]12CC[C@H]3[C@@H]([C@@H]4O[C@@H]4C4=CC(=O)C=C[C@@]43C)[C@@H]1CC(=O)OC2`, the IC50 with PC-3, in the experiment with MDA-MB-231 and with MCF7 [12] was above 100 µM in each case.
As for `CC(C)[C@@]12CC[C@@](C)(OO1)[C@@H]1O[C@@H]12`, the IC50 in the experiment with Plasmodium falciparum [13] is above 10 µM; in the experiment with Plasmodium falciparum [14] it was 0.01 µM; in the experiment with Plasmodium falciparum [15], above 10 µM; in the experiment with Plasmodium falciparum [16] it was 0.08 µM; in the experiment with Plasmodium falciparum [17], 0.01 µM; in the experiment with Plasmodium falciparum [18], 0.01 µM. Besides, half-maximal inhibition in the experiment on Plasmodium falciparum [19] (IC50) required 0.08 µM.
